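All cell lines were grown in 96-well plates and treated with compound for 48 hours. Abbreviation: GI50, concentration required for 50% inhibition of growth. TGI: total growth inhibition.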
Assays:
Assay in all cases: inhibition of tumour cell growth, NCI panel, 48 h
[1] = system: A549 NSCLC
[2] = system: EKVX NSCLC
[3] = system: HL-60(TB) leukemia
[4] = system: MCF7 breast
[5] = system: MDA-N
[6] = system: MOLT-4 leukemia
[7] = system: NCI-H460 lung
[8] = system: NCI/ADR-RES ovarian
[9] = system: SF-539 CNS
[10] = system: SK-OV-3 ovarian

Compound	TGI [1] [µM]	TGI [2] [µM]	TGI [3] [µM]	TGI [4] [µM]	TGI [5] [µM]	TGI [6] [µM]	TGI [7] [µM]	TGI [8] [µM]	TGI [9] [µM]	TGI [10] [µM]	GI50 [1] [µM]	GI50 [2] [µM]	GI50 [3] [µM]	GI50 [4] [µM]	GI50 [6] [µM]	GI50 [7] [µM]	GI50 [8] [µM]	GI50 [10] [µM]
COc1ccc2c(-c3csc(-c4c[nH]c5ccccc45)n3)c[nH]c2c1	53.7	13.3	> 100	> 100	> 100	19.8	13.7	> 81.6	65.5	42.7								
O=c1cc(-c2ccccc2)[nH]c2c(F)ccc(F)c12	> 100		> 100			> 100	> 100		> 100	> 100								
COc1ccc(C2=C(N)c3cc(OC)ccc3C2=O)cc1	> 100	> 100	> 100	> 100	> 100	> 100	> 100	> 100	> 100	> 100								
COc1ccc(Nc2ccnc3cc(Cl)ccc23)cc1CN(CCCl)CCCl	> 28.5	> 21.5	3.96	6.42		2.61	2.96	> 100			1.69	1.9	0.944	0.633	0.662	0.532	3.84	1.56
Cc1cccc(-c2cc(=O)c3cc(C)cnc3[nH]2)c1	> 100	> 100	0.355			> 100	13.1	0.394	2.62	> 29.6								
Cc1cccc2c1C(=O)/C(=C/c1ccccc1C(=O)O)C2	> 100	> 100	> 100	> 100	> 100	> 100	> 100	> 100	> 100									
CN(C)CC(C)(C)C(=O)/C=C/c1ccccc1	> 100	38.3	26.7			60.4	74.6		32.3									
CC(=O)c1nc(C#N)c(N)o1	> 100	> 100		> 100	> 100	> 100	> 100	> 100	> 100	> 100								
H-KIFKKFKTIIKKVWRIFGRF-NH2			57.1	> 100		> 100		9.57		7.39			5.23	3.04	3.13		2.95	3.17
C/C(=N/NC(=O)c1ccccc1Nc1ccccc1C(=O)N/N=C(\C)c1ccc(C)cc1)c1ccc(C)cc1	> 100	> 100	> 100	> 100	> 100	> 100	> 100	> 100		> 100								
CC1CC2OC(=N)C1(C#N)C2(C#N)C#N (centres undefined)	> 100	51.1		> 100	33	> 100		> 100	56.7	> 100								
N#CC(NNC(=O)c1c(Cl)c(Cl)c(Cl)c(Cl)c1-c1nc2ccc(C(=O)c3ccccc3)cc2[nH]1)c1cccc(Oc2ccccc2)c1 (centres undefined)	> 100	37.6	83.6	65.6	49.6	> 100		57.1	43.4	> 100								
Cc1nc2ccccc2nc1N1CCCC1	> 100	> 100		> 100	> 100		> 100	> 100		> 100								
O=C(CSCC(=O)N/N=C\c1cccc(Br)c1)N/N=C\c1cccc(Br)c1	31.5	63.7	> 100	> 100		73	84.3	34.1	50.8	40.6								
Oc1[nH]c2ccccc2c1N=NC(=S)NCc1ccccn1	13.7	12.5		14.1	19.9	4.9	11.4	> 23.3	5.06	13.8								
Cn1c(-c2cccs2)cc(-c2ccsc2)c1-c1ccsc1	> 100	> 100		> 100	> 100	> 100	> 100	> 100	> 100	> 100								
O=C1CSC2=NC3=C(COC/C3=C\c3ccc(F)cc3)C(c3ccc(F)cc3)N12 (centres undefined)		> 100	34.5	> 100	> 100	> 100	> 100	> 100	> 100	> 100								
CC(C)(C)C1=CC(O)(c2c3ccccc3c(C3(O)C=C(C(C)(C)C)C(=O)C(C(C)(C)C)=C3)c3ccccc23)C=C(C(C)(C)C)C1=O	> 100	> 100		> 100	> 100	> 100		> 100	> 100	> 100								
Cc1cnc2cc(Cl)ccc2c1SCC(=O)O	> 100	> 100	> 100		> 100	> 100	> 100	> 100										
[O-][n+]1cc(SCc2ccccc2)ncc1SCc1ccccc1	> 10	> 10	> 10	> 10		> 10	> 10	> 10	> 10	> 10								
Oc1cccc(-c2cn3cc(Cl)ccc3n2)c1	> 100	83.5	56.2	> 100	> 100	> 100	> 100	> 100		> 100								
CC1=NNC(N)=N/C1=C\C(Sc1ccc(Cl)cc1)c1ccc(Cl)cc1Cl (centres undefined)	59.4	32.7	22.2	16.4	> 71.5	> 100	29.3	39		41.9								

Source: PubChem BioAssay (NCI)
